Experimental findings from paper PMC10797614, “MYC-Targeting Inhibitors Generated from a Stereodiversified Bicyclic Peptide Library” (Journal of the American Chemical Society, 2024) are described below.

The first series in a line: tandem ring-opening/ring-closing metathesis (ROM-RCM) of side-chain norbornene with two Glu allyl esters to bicyclic peptide; Hoveyda-Grubbs 2nd gen (M720), two portions (library procedure). Conditions: the molecule shown is the open-chain precursor; 28-membered ring; 1,2-dichloroethane; resin; 70.0 °C.
For `C=CCOC(=O)CC[C@H](NC(=O)[C@H](CC(C)C)NC(=O)[C@H](C)NC(=O)[C@@H]1CCCN1C(=O)[C@H](CCCCNC(=O)[C@@H]1C[C@H]2C=C[C@@H]1C2)NC(=O)[C@@H](NC(=O)[C@@H](NC(=O)[C@H](Cc1ccccc1)NC(=O)[C@H](CCC(=O)OCC=C)NC(=O)OCC1c2ccccc2-c2ccccc21)[C@@H](C)CC)C(C)C)C(N)=O`, the ring closure, conversion by HPLC (% (semiquantitative, mass spectrometry)) came to 14.

Regarding `C=CCOC(=O)CC[C@H](NC(=O)[C@H](CC(C)C)NC(=O)[C@@H]1CCCN1C(=O)[C@H](C)NC(=O)[C@H](CCCCNC(=O)[C@@H]1C[C@H]2C=C[C@@H]1C2)NC(=O)[C@@H](NC(=O)[C@@H](NC(=O)[C@H](Cc1ccccc1)NC(=O)[C@H](CCC(=O)OCC=C)NC(=O)OCC1c2ccccc2-c2ccccc21)[C@@H](C)CC)C(C)C)C(N)=O`, the ring closure, conversion by HPLC (% (semiquantitative, mass spectrometry)) came to 10.

Consider `C=CCOC(=O)CC[C@H](NC(=O)[C@H](CC(C)C)NC(=O)[C@H](C)NC(=O)[C@@H]1CCCN1C(=O)[C@H](CCCCNC(=O)[C@H]1C[C@H]2C=C[C@@H]1C2)NC(=O)[C@@H](NC(=O)[C@@H](NC(=O)[C@H](Cc1ccccc1)NC(=O)[C@H](CCC(=O)OCC=C)NC(=O)OCC1c2ccccc2-c2ccccc21)[C@@H](C)CC)C(C)C)C(N)=O`, for which the ring closure, conversion by HPLC (% (semiquantitative, mass spectrometry)) is 47.

With `C=CCOC(=O)CC[C@H](NC(=O)[C@H](CC(C)C)NC(=O)[C@H](C)NC(=O)[C@H](CCCCNC(=O)[C@@H]1C[C@H]2C=C[C@@H]1C2)NC(=O)[C@@H](NC(=O)[C@@H](NC(=O)[C@H](Cc1ccccc1)NC(=O)[C@H](CCC(=O)OCC=C)NC(=O)OCC1c2ccccc2-c2ccccc21)[C@@H](C)CC)C(C)C)C(N)=O`, the ring closure, conversion by HPLC (% (semiquantitative, mass spectrometry)) worked out at 18.

For `C=CCOC(=O)CC[C@H](NC(=O)[C@@H]1CCCN1C(=O)[C@H](CC(C)C)NC(=O)[C@H](C)NC(=O)[C@H](CCCCNC(=O)[C@@H]1C[C@H]2C=C[C@@H]1C2)NC(=O)[C@@H](NC(=O)[C@@H](NC(=O)[C@H](Cc1ccccc1)NC(=O)[C@H](CCC(=O)OCC=C)NC(=O)OCC1c2ccccc2-c2ccccc21)[C@@H](C)CC)C(C)C)C(N)=O`, the ring closure, conversion by HPLC (% (semiquantitative, mass spectrometry)) came out at 2.

As for `C=CCOC(=O)CC[C@H](NC(=O)[C@H](CC(C)C)NC(=O)[C@H](C)NC(=O)[C@H](CCCCNC(=O)[C@H]1C[C@H]2C=C[C@@H]1C2)NC(=O)[C@@H](NC(=O)[C@@H](NC(=O)[C@H](Cc1ccccc1)NC(=O)[C@H](CCC(=O)OCC=C)NC(=O)OCC1c2ccccc2-c2ccccc21)[C@@H](C)CC)C(C)C)C(N)=O`, the ring closure, conversion by HPLC (% (semiquantitative, mass spectrometry)) was 65.

In turn, `C=CCOC(=O)CC[C@H](NC(=O)[C@@H]1CCCN1C(=O)[C@H](CC(C)C)NC(=O)[C@H](C)NC(=O)[C@H](CCCCNC(=O)[C@H]1C[C@H]2C=C[C@@H]1C2)NC(=O)[C@@H](NC(=O)[C@@H](NC(=O)[C@H](Cc1ccccc1)NC(=O)[C@H](CCC(=O)OCC=C)NC(=O)OCC1c2ccccc2-c2ccccc21)[C@@H](C)CC)C(C)C)C(N)=O` returned a ring closure, conversion by HPLC (% (semiquantitative, mass spectrometry)) of 2.

`C=CCOC(=O)CC[C@H](NC(=O)[C@H](CC(C)C)NC(=O)[C@@H]1CCCN1C(=O)[C@H](C)NC(=O)[C@H](CCCCNC(=O)[C@H]1C[C@H]2C=C[C@@H]1C2)NC(=O)[C@@H](NC(=O)[C@@H](NC(=O)[C@H](Cc1ccccc1)NC(=O)[C@H](CCC(=O)OCC=C)NC(=O)OCC1c2ccccc2-c2ccccc21)[C@@H](C)CC)C(C)C)C(N)=O` gave a ring closure, conversion by HPLC (% (semiquantitative, mass spectrometry)) of 45.

Staying with this series, now noted: the molecule shown is the open-chain precursor; 31-membered ring; 1,2-dichloroethane; resin; 70.0 °C.
In turn, `C=CCOC(=O)CC[C@H](NC(=O)[C@H](CC(C)C)NC(=O)[C@H](C)NC(=O)[C@H](CCCCNC(=O)[C@H]1C[C@H]2C=C[C@@H]1C2)NC(=O)[C@@H]1CCCN1C(=O)[C@@H](NC(=O)[C@@H](NC(=O)[C@H](Cc1ccccc1)NC(=O)[C@H](CCC(=O)OCC=C)NC(=O)OCC1c2ccccc2-c2ccccc21)[C@@H](C)CC)C(C)C)C(N)=O` came in with a ring closure, conversion by HPLC (% (semiquantitative, mass spectrometry)) of 34.

Regarding `C=CCOC(=O)CC[C@H](NC(=O)[C@H](CC(C)C)NC(=O)[C@H](C)NC(=O)[C@H](CCCCNC(=O)[C@@H]1C[C@H]2C=C[C@@H]1C2)NC(=O)[C@@H](NC(=O)[C@@H](NC(=O)[C@@H]1CCCN1C(=O)[C@H](Cc1ccccc1)NC(=O)[C@H](CCC(=O)OCC=C)NC(=O)OCC1c2ccccc2-c2ccccc21)[C@@H](C)CC)C(C)C)C(N)=O`, the ring closure, conversion by HPLC (% (semiquantitative, mass spectrometry)) came out at 74.

Regarding `C=CCOC(=O)CC[C@H](NC(=O)[C@H](CC(C)C)NC(=O)[C@H](C)NC(=O)[C@H](CCCCNC(=O)[C@H]1C[C@H]2C=C[C@@H]1C2)NC(=O)[C@@H](NC(=O)[C@@H](NC(=O)[C@H](Cc1ccccc1)NC(=O)[C@@H]1CCCN1C(=O)[C@H](CCC(=O)OCC=C)NC(=O)OCC1c2ccccc2-c2ccccc21)[C@@H](C)CC)C(C)C)C(N)=O`, the ring closure, conversion by HPLC (% (semiquantitative, mass spectrometry)) stood at 55.

The compound `C=CCOC(=O)CC[C@H](NC(=O)[C@H](CC(C)C)NC(=O)[C@H](C)NC(=O)[C@H](CCCCNC(=O)[C@H]1C[C@H]2C=C[C@@H]1C2)NC(=O)[C@@H](NC(=O)[C@@H]1CCCN1C(=O)[C@@H](NC(=O)[C@H](Cc1ccccc1)NC(=O)[C@H](CCC(=O)OCC=C)NC(=O)OCC1c2ccccc2-c2ccccc21)[C@@H](C)CC)C(C)C)C(N)=O` showed a ring closure, conversion by HPLC (% (semiquantitative, mass spectrometry)) of 80.

With `C=CCOC(=O)CC[C@H](NC(=O)[C@H](CC(C)C)NC(=O)[C@H](C)NC(=O)[C@H](CCCCNC(=O)[C@H]1C[C@H]2C=C[C@@H]1C2)NC(=O)[C@@H](NC(=O)[C@@H](NC(=O)[C@@H]1CCCN1C(=O)[C@H](Cc1ccccc1)NC(=O)[C@H](CCC(=O)OCC=C)NC(=O)OCC1c2ccccc2-c2ccccc21)[C@@H](C)CC)C(C)C)C(N)=O`, the ring closure, conversion by HPLC (% (semiquantitative, mass spectrometry)) came to 79.

On to `C=CCOC(=O)CC[C@H](NC(=O)[C@H](CC(C)C)NC(=O)[C@H](C)NC(=O)[C@H](CCCCNC(=O)[C@@H]1C[C@H]2C=C[C@@H]1C2)NC(=O)[C@@H](NC(=O)[C@@H]1CCCN1C(=O)[C@@H](NC(=O)[C@H](Cc1ccccc1)NC(=O)[C@H](CCC(=O)OCC=C)NC(=O)OCC1c2ccccc2-c2ccccc21)[C@@H](C)CC)C(C)C)C(N)=O`, for which the ring closure, conversion by HPLC (% (semiquantitative, mass spectrometry)) is 14.

In the case of `C=CCOC(=O)CC[C@H](NC(=O)[C@H](CC(C)C)NC(=O)[C@H](C)NC(=O)[C@H](CCCCNC(=O)[C@@H]1C[C@H]2C=C[C@@H]1C2)NC(=O)[C@@H]1CCCN1C(=O)[C@@H](NC(=O)[C@@H](NC(=O)[C@H](Cc1ccccc1)NC(=O)[C@H](CCC(=O)OCC=C)NC(=O)OCC1c2ccccc2-c2ccccc21)[C@@H](C)CC)C(C)C)C(N)=O`, the ring closure, conversion by HPLC (% (semiquantitative, mass spectrometry)) is 25.

As to `C=CCOC(=O)CC[C@H](NC(=O)[C@H](CC(C)C)NC(=O)[C@H](C)NC(=O)[C@H](CCCCNC(=O)[C@@H]1C[C@H]2C=C[C@@H]1C2)NC(=O)[C@@H](NC(=O)[C@@H](NC(=O)[C@H](Cc1ccccc1)NC(=O)[C@@H]1CCCN1C(=O)[C@H](CCC(=O)OCC=C)NC(=O)OCC1c2ccccc2-c2ccccc21)[C@@H](C)CC)C(C)C)C(N)=O`, the ring closure, conversion by HPLC (% (semiquantitative, mass spectrometry)) came out at 22.
